Legend:
[1] = target: T1, phthalyl amidase (Xanthobacter agilis, UniProt P0C2Y0); assay: Substrate specificity: chemical structure requirements for enzyme activity; assay type: biochemical; settings: 2.5 μmol compound, 0.3 units enzyme, 50 mM phosphate pH 8.0, 30° C.
T1 construct: 42-aa signal peptide removed
Description: (§1) The activity of phthalyl amidase against 25 compounds was determined. The compounds were divided into beta-lactams (Table 9), phthalyl amides (Table 10), and aromatic ring substituted amides (Table 11). Each reaction mixture (1 ml total volume) contained 2.5 μmol of compound and 0.3 units of enzyme (based on the chromogenic substrate) of the preparative scale purified enzyme, in 50 mM phosphate buffer, pH 8.0. The reactions were conducted at 30° C. Samples of the reaction mixture were taken at various times, and methanol (equal volume) was added to stop the reaction. The samples were examined by HPLC to determine the extent of substrate hydrolysis. The amount of compound hydrolyzed was calculated from a standard curve of the test compound. All substrates were stable in buffer at 30° C. and pH 8.0 in the absence of enzyme for 24 hours.

[2] = target: T1, phthalyl amidase; assay: Kinetic parameters for phthalyl amidase; assay type: biochemical; settings: 50 mM potassium phosphate buffer, pH 8.0, 30° C.
Description: (§2) The kinetic parameters of the enzyme were determined for several representative substrates. Compounds II, XVII, and XVIII were tested using 0.9 μg/ml of enzyme. Compounds III and XI were tested using 5.14 μg/ml of enzyme. Substrate concentrations were between 0 and 25 mM and reaction time was between 2 and 20 minutes, depending on the substrate used. […] Km is the Michaelis constant for enzyme kinetics, Vmax is the maximal rate of reaction calculated by the Michaelis-Menten equation, and Kcat is the catalytic constant for an enzyme reaction.

[3] = target: T1, phthalyl amidase; assay: Chiral and additional substrate selectivity of phthalyl amidase; assay type: biochemical; settings: Table 13; III = 100; 0.009 mg (0.6 units) enzyme, 2.5 μmol substrate, buffer A, 30° C.
Description: Several additional substrates were tested in a total volume of 1 ml. […] Reactions were stopped by the addition of methanol, and phthalic acid formation was monitored by HPLC.

[4] = target: T1, phthalyl amidase; assay: Preparative scale hydrolysis to carbacephem nucleus; assay type: biochemical
Description: (§3) Thus, either compound XXXIII or III can be used to prepare the carbacephem nucleus (XXXIV). Substrate (4 grams) was added to 20 ml of deionized water and the pH of the solution was adjusted to 8.0 with concentrated ammonium hydroxide. Phthalyl amidase, 80 units as determined using the chromogenic substrate (II), was added to start the reaction. Temperature was maintained at 30° C. and the pH maintained at 8.0 by adding 2N ammonium hydroxide. […] The pH of the reaction was lowered to 5.0 thereby precipitating the carbacephem nucleus. Isolated yields of the nucleus were between 65% and 77%. [drawing 26]

[5] = Stability of substrates in buffer without enzyme; assay type: physicochemical; settings: buffer at pH 8.0
Description: as §1
as §3, with “Isolated yields of the nucleus were between 65% and 77%. [drawing 26]” left out

[6] = target: phthalyl-L-Asp-L-Phe-OMe (compound XIV)
[7] = substrate: CCCCCCC(C(=O)O)n1cnc(NC(=O)c2c(F)cccc2C(=O)O)c1; assay: Kinetic parameters for phthalyl amidase; assay type: biochemical, Xanthobacter agilis; settings: other: 32° C., pH 8.2; II, XVII, XVIII with 0.9 μg/ml enzyme, III and XI with 5.14 μg/ml; pH 8.2; 32.0 °C
Description: as §2

[8] = substrate: CCCCCCC(C(=O)O)n1cnc(NC(=O)c2ccccc2C(=O)O)c1; assay: Kinetic parameters for phthalyl amidase; assay type: biochemical, Xanthobacter agilis; settings: other: 32° C., pH 8.2; II, XVII, XVIII with 0.9 μg/ml enzyme, III and XI with 5.14 μg/ml; pH 8.2; 32.0 °C
Description: as §2

[9] = substrate: O=C(O)C1=C(Cl)CCC2C(NC(=O)c3ccccc3C(=O)O)C(=O)N12; assay: Kinetic parameters for phthalyl amidase; assay type: biochemical, Xanthobacter agilis
Description: as §2

[10] = substrate: O=C(O)CNC(=O)c1ccccc1C(=O)O; assay: Kinetic parameters for phthalyl amidase; assay type: biochemical, Xanthobacter agilis; settings: other: 32° C., pH 8.2; II, XVII, XVIII with 0.9 μg/ml enzyme, III and XI with 5.14 μg/ml; pH 8.2; 32.0 °C
Description: as §2

[11] = substrate: O=C(O)c1ccccc1C(=O)Nc1ccc([N+](=O)[O-])c(C(=O)O)c1; assay: Kinetic parameters for phthalyl amidase; assay type: biochemical, Xanthobacter agilis; settings: other: 32° C., pH 8.2; II, XVII, XVIII with 0.9 μg/ml enzyme, III and XI with 5.14 μg/ml; pH 8.2; 32.0 °C
Description: as §2

O=C(O)C1=C(Cl)CCC2C(NC(=O)c3ccccc3C(=O)O)C(=O)N12 (centres unmarked) [III, 7-phthalamido-3-chloro-4-carboxy-1-carba-dethioceph-3-em]
Relative Activity ([1]; Table 9 beta-lactams, III = 100): 100
Relative Activity ([1]; Table 10 phthalyl amides, III = 100.0): 100.0
Vmax [2]: 7.6 µmol/min/mg
Relative Activity [3]: 100
hydrolyzed (HPLC) ([4]; phthalyl amidase, […], pH 8): 90.0%

O=C(O)C1=C(Cl)CCC2C(N3C(=O)c4ccccc4C3=O)C(=O)N12 (centres unmarked) [XXXIII]
hydrolyzed (HPLC) ([4]; 4 grams substrate, 80 units enzyme, pH 8.0, 30° C., after 510 minutes): 98%
hydrolysis of phthalimido to phthalamido form in buffer (in words) [5]: readily hydrolyzes

B1: phthalyl amidase (mature enzyme, purified from Xanthobacter agilis) (enzyme)
chain: QAPSVHQHVAFTEEIGDLPDGSSYMIRVPENWNGVLIRDLDLVSGTSNSNAARYETMLKEGFAVAGTARHPLRQWQYDPAHEIENLNHVLDTFEENYGSPERVIQYGCSGGAHVSLAVAEDFSDRVDGSVALAAHTPVWIMNSFLDGWFSLQSLIGEYYVEAGHGPLSDLAITKLPNDGSSNSSGHGMEGDLPAAWRNAFTAANATPEGRARMALAFALGQWSPWLADNTPQPDLDDPEAIADSVYESAMRLAGSPGGEARIMFENAARGQQLSWNDDIDYADFWENSNPAMKSAVQELYDTAGLDLQSDIETVNSQPRIEASQYALDYWNTPGRNVIGDPEVPVLRLHMIGDYQIPYSLVQGYSDLISENNNDDLYRTAFVQSTGHCNFTAAESSAAIEVMMQRLDTGEWPSTEPDDLNAIAEASNTGTEARFMALDGWEIPEYNRTWKPE
modifications: N-terminus blocked (attempts to sequence the N-terminus of the purified enzyme failed)
Relative Activity (hydrolysis of the substrate by HPLC) (relative activity (compound III = 100.0)) [6]: 118

B2: phthalyl amidase (Xanthobacter agilis) (protein)
chain: QAPSVHQHVAFTEEIGDLPDGSSYMIRVPENWNGVLIRDLDLVSGTSNSNAARYETMLKEGFAVAGTARHPLRQWQYDPAHEIENLNHVLDTFEENYGSPERVIQYGCSGGAHVSLAVAEDFSDRVDGSVALAAHTPVWIMNSFLDGWFSLQSLIGEYYVEAGHGPLSDLAITKLPNDGSSNSSGHGMEGDLPAAWRNAFTAANATPEGRARMALAFALGQWSPWLADNTPQPDLDDPEAIADSVYESAMRLAGSPGGEARIMFENAARGQQLSWNDDIDYADFWENSNPAMKSAVQELYDTAGLDLQSDIETVNSQPRIEASQYALDYWNTPGRNVIGDPEVPVLRLHMIGDYQIPYSLVQGYSDLISENNNDDLYRTAFVQSTGHCNFTAAESSAAIEVMMQRLDTGEWPSTEPDDLNAIAEASNTGTEARFMALDGWEIPEYNRTWKPE
notes: 42-aa signal peptide removed
Km [7]: 170 µM
Km [8]: 90 µM
Km ([9]; other: 50 mM potassium phosphate buffer, pH 8.0, 30° C., pH 8.0, 30.0 °C): 900 µM
Km ([9]; other: 32° C., pH 8.2, II, XVII, XVIII with 0.9 μg/ml enzyme, III and XI with 5.14 μg/ml, pH 8.2, 32.0 °C): 900 µM
Km [10]: 140 µM
Km [11]: 50 µM

— US5451522A, “Genes encoding and method of expressing an enzyme: phthalyl amidase” (priority 1994, dated 1995)
